Measured values reported in patent publication US8309586B2, “Glucokinase activators and pharmaceutical compositions containing the same as an active ingredient” (LG Life Sciences Ltd., priority 2007, dated 2012).

test system: Glucokinase known as hexokinase IV (human GK isoform 1, pancreas form and human GK isoform 2, liver form); assay: Glucokinase enzymatic activity assay (G6PDH-coupled, NADH absorbance at 340 nm); format: biochemical; conditions: 5 mM glucose, 1 mM ATP, 37 nM GK, 10 min at room temperature
Procedure: Glucokinase known as hexokinase IV (human GK isoform 1, pancreas form and human GK isoform 2, liver form) was cloned into an expression vector pET15 fx (Novagen Co.), transformed to E. coli BL21 (DE3) (Invitrogen Co.) strain, expressed, and purified using a nickel column. Then, the glucokinase obtained from dialysis was used in the following assay.
Glucokinase assay was performed by measuring absorbance according to the conventional manner. Briefly speaking, glucokinase converts the substrate glucose to glucose-6-phosphate under certain conditions, and glucose-6-phosphate dehydrogenase irreversibly converts glucose-6-phosphate to gluconate-6-phosphate. During this procedure, NADH is formed, and its absorbance is measured to calculate the enzymatic activity.
In the measurement of the enzymatic activity, each compound was diluted by two-fold from the maximum to the minimum concentrations, and 2 μl of each solution was added to 96 well UV plate (BD bioscience). 60 μl of the first mixture (final concentrations 25 mM Hepes, 25 mM KCl, 2 mM MgCl2, 1 mM DTT) was added, and thoroughly mixed. 38 μl of the enzyme mixture (final concentrations 1 mM ATP, 1 mM NAD, 5 mM glucose, 0.85U G6PDH, 37 nM GK) was added (final volume 100 μl), and the mixture was reacted for 10 min at room temperature. The absorbance of NADH was measured at 340 nm using a UV spectrometer (Molecular Device).
The enzyme activating abilities of the compounds according to the present invention are represented as AC1.5 (the compound concentration at which the enzymatic activity is increased by 1.5 times, nM), which is in the range of 0.001 uM to 30 uM or less, preferably 0.001 uM to 10 uM, more preferably 0.001 uM to 1 uM.

Compound	AC1.5 (the compound concentration at which the enzymatic activity is increased by 1.5 times) [nM]
Fc1cc(NC2CCCC2)c2[nH]c(C3=N[C@H](CCN4CCCC4)CS3)cc2c1 [Example 128, cyclopentyl-{5-fluoro-2-[(R)-4-(2-pyrrolidin-1-yl-ethyl)-4,5-dihydro-thiazol-2-yl]-1H-indol-7-yl}-amine]	16
O=S1(=O)CCN(CC[C@@H]2CSC(c3cc4cc(F)cc(NC5CCOCC5)c4[nH]3)=N2)CC1 [Example 137, (2-{(R)-4-[2-(1,1-dioxo-thiomorpholin-4-yl)-ethyl]-4,5-dihydro-thiazol-2-yl}-5-fluoro-1H-indol-7-yl)-(tetrahydropyran-4-yl)-amine]	23
Clc1cc(NC2CCOCC2)c2[nH]c(C3=N[C@H](CCN4CCN(c5cnccn5)CC4)CS3)cc2c1 [Example 122, (5-chloro-2-{(R)-4-[2-(2,3,5,6-tetrahydro-[1,2′]bipyrazinyl-4-yl)-ethyl]-4,5-dihydro-thiazol-2-yl}-1H-indol-7-yl)-(tetrahydropyran-4-yl)-amine]	60
OC[C@@H]1CSC(c2cc3cc(Cn4ccnc4)cc(NC4CCCC4)c3[nH]2)=N1 [Example 22, [(R)-2-(7-cyclopentylamino-5-imidazol-1-ylmethyl-1H-indol-2-yl)-4,5-dihydro-thiazol-4-yl}-methanol]	112
CCS(=O)(=O)N1CCN(CC[C@@H]2CSC(c3cc4cc(Cl)cc(NC5CCCC5)c4[nH]3)=N2)CC1 [Example 98, (5-chloro-2-{(R)-4-[2-(4-ethanesulfonyl-piperazin-1-yl)-ethyl]-4,5-dihydro-thiazol-2-yl}-1H-indol-7-yl)-cyclopentyl-amine]	7
CS(=O)(=O)CC[C@@H]1CSC(c2cc3cccc(NC4CCOCC4)c3[nH]2)=N1 [Example 145, {2-[(R)-4-(2-methanesulfonyl-ethyl)-4,5-dihydro-thiazol-2-yl]-1H-indol-7-yl}-(tetrahydro-pyran-4-yl)-amine]	138
O=S1(=O)CCN(CC[C@@H]2CSC(c3cc4cc(F)cc(NC5CCCC5)c4[nH]3)=N2)CC1 [Example 129, cyclopentyl-(2-{(R)-4-[2-(1,1-dioxo-thiomorpholin-4-yl)-ethyl]-4,5-dihydro-thiazol-2-yl}-5-fluoro-1H-indol-7-yl)-amine]	67
c1cc(NC2CCCC2)c2[nH]c(C3=N[C@H](CCN4CCOCC4)CS3)cc2c1 [Example 143, cyclopentyl-{2-[(R)-4-(2-morpholin-4-yl-ethyl)-4,5-dihydro-thiazol-2-yl]-1H-indol-7-yl}-amine]	37
O=C(O)C1CCCN(CC[C@@H]2CSC(c3cc4cc(Cl)cc(NC5CCOCC5)c4[nH]3)=N2)C1 (stereo partly drawn) [Example 112, 1-(2-{(R)-2-[5-chloro-7-(tetrahydro-pyran-4-ylamino)-1H-indol-2-yl]-4,5-dihydro-thiazol-4-yl}-ethyl)-piperidine-3-carboxylic acid]	81
CS(=O)(=O)CC[C@@H]1CSC(c2cc3cc(F)cc(NC4CCOCC4)c3[nH]2)=N1 [Example 138, (5-fluoro-2-[(R)-4-(2-methanesulfonyl-ethyl)-4,5-dihydro-thiazol-2-yl]-1H-indol-7-yl)-(tetrahydro-pyran-4-yl)-amine]	36
O=C1CN(CC[C@@H]2CSC(c3cc4cc(F)cc(NC5CCOCC5)c4[nH]3)=N2)CCN1 [Example 139, 4-(2-{(R)-2-[5-fluoro-7-(tetrahydro-pyran-4-ylamino)-1H-indol-2-yl]-4,5-dihydro-thiazol-4-yl}-ethyl)-piperazin-2-one]	38
Cc1cc(NC2CCOCC2)c2[nH]c(C3=N[C@H](CC(=O)O)CS3)cc2c1 [Example 62, {(R)-2-[5-methyl-7-(tetrahydro-pyran-4-ylamino)-1H-indol-2-yl]-4,5-dihydro-thiazol-4-yl}-acetic acid]	36
O=C(CC[C@@H]1CSC(c2cc3cc(Cl)cc(NC4CCCC4)c3[nH]2)=N1)NCCN1CCOCC1 [Example 153, 3-[(R)-2-(5-chloro-7-cyclopentylamino-1H-indol-2-yl)-4,5-dihydro-thiazol-4-yl]-N-(2-morpholin-4-yl-ethyl)-propionamide]	12
O=C(O)C[C@@H]1CSC(c2cc3cc(Br)cc(NC4CCOCC4)c3[nH]2)=N1 [Example 35, {(R)-2-[5-bromo-7-(tetrahydro-pyran-4-ylamino)-1H-indol-2-yl]-4,5-dihydro-thiazol-4-yl}-acetic acid]	6

Second part, the molecule after the results:

AC1.5 (the compound concentration at which the enzymatic activity is increased by 1.5 times) [nM]	Compound
13	CS(=O)(=O)CC[C@@H]1CSC(c2cc3cc(F)cc(NC4CCCC4)c3[nH]2)=N1 [Example 132, cyclopentyl-{5-fluoro-2-[(R)-4-(2-methanesulfonyl-ethyl)-4,5-dihydro-thiazol-2-yl]-1H-indol-7-yl}-amine]
28	COC(=O)C[C@@H]1CSC(c2cc3cc(Cl)cc(NC4CCOCC4)c3[nH]2)=N1 [Example 30, {(R)-2-[5-chloro-7-(tetrahydro-pyran-4-ylamino)-1H-indol-2-yl]-4,5-dihydro-thiazol-4-yl}acetic acid methyl ester]
64	CS(=O)(=O)Cc1cc(NC2CCCC2)c2[nH]c(C3=N[C@H](CC(=O)O)CS3)cc2c1 [Example 69, [(R)-2-(7-cyclopentylamino-5-methanesulfonylmethyl-1H-indol-2-yl)-4,5-dihydro-thiazol-4-yl]-acetic acid]
28	COC(=O)C[C@@H]1CSC(c2cc3cc(OC)cc(NC4CCOCC4)c3[nH]2)=N1 [Example 50, {(R)-2-[5-methoxy-7-(tetrahydro-pyran-4-ylamino)-1H-indol-2-yl]-4,5-dihydro-thiazol-4-yl}-acetic acid methyl ester]
7	COC(=O)C[C@@H]1CSC(c2cc3cc(Cl)cc(NC4CCCC4)c3[nH]2)=N1 [Example 26, [(R)-2-(5-chloro-7-cyclopentylamino-1H-indol-2-yl)-4,5-dihydro-thiazol-4-yl]acetic acid methyl ester]
24	NCC[C@@H]1CSC(c2cc3cc(F)cc(NC4CCCC4)c3[nH]2)=N1 [Example 124, {2-[(R)-4-(2-amino-ethyl)-4,5-dihydro-thiazol-2-yl]-5-fluoro-1H-indol-7-yl}-cyclopentyl-amine]
167	COc1cc(NC2CCOCC2)c2[nH]c(C3=N[C@H](CC(=O)O)CS3)cc2c1 [Example 51, {(R)-2-[5-methoxy-7-(tetrahydro-pyran-4-ylamino)-1H-indol-2-yl]-4,5-dihydro-thiazol-4-yl}-acetic acid]
29	COC(=O)C[C@@H]1CSC(c2cc3cc(C)cc(NC4CCCC4)c3[nH]2)=N1 [Example 60, [(R)-2-(7-cyclopentylamino-5-methyl-1H-indol-2-yl)-4,5-dihydro-thiazol-4-yl]acetic acid methyl ester]
32	CS(=O)(=O)Cc1cc(NC2CCCC2)c2[nH]c(C3=N[C@H](CO)CS3)cc2c1 [Example 24, [(R)-2-(7-cyclopentylamino-5-methanesulfonylmethyl-1H-indol-2-yl)-4,5-dihydro-thiazol-4-yl]-methanol]
32	CCNC(=O)C[C@@H]1CSC(c2cc3cccc(NC4CCCC4)c3[nH]2)=N1 [Example 89, 2-[(R)-2-(7-cyclopentylamino-1H-indol-2-yl)-4,5-dihydro-thiazol-4-yl]-N-ethyl-acetamide]
15	CS(=O)(=O)CC[C@@H]1CSC(c2cc3cc(Cl)cc(NC4CCCC4)c3[nH]2)=N1 [Example 108, {5-chloro-2-[(R)-4-(2-methanesulfonyl-ethyl)-4,5-dihydro-thiazol-2-yl]-1H-indol-7-yl}-cyclopentyl-amine]
6	O=S1(=O)CCN(CC[C@@H]2CSC(c3cc4cc(Cl)cc(NC5CCCC5)c4[nH]3)=N2)CC1 [Example 105, (5-chloro-2-{(R)-4-[2-(1,1-dioxo-thiomorpholin-4-yl)-ethyl]-4,5-dihydro-thiazol-2-yl}-1H-indol-7-yl)-cyclopentyl-amine]
